Row | SMILES | melting point
1 | CN1CCC(C2CCN(C(=O)[C@@H](Cc3cccnc3)NC(=O)c3ccc4cc[nH]c4c3)CC2)CC1.Cl | 177 to 182 °C (dec.)
2 | CN1CCC(C2CCN(C(=O)[C@@H](Cc3ccncc3)NC(=O)c3ccc4cc[nH]c4c3)CC2)CC1.Cl | 183 to 186 °C (dec.)
3 | CN1CCC(C2CCN(C(=O)[C@@H](Cc3ccccn3)NC(=O)c3ccc4cc[nH]c4c3)CC2)CC1.Cl | 175 to 179 °C (dec.)
4 | CN1CCC(C2CCN(C(=O)[C@@H](Cc3cn(C)cn3)NC(=O)c3ccc4cc[nH]c4c3)CC2)CC1.Cl | 179 to 185 °C (dec.)
5 | CN1CCC(C2CCN(C(=O)[C@@H](CC3CCCCC3)NC(=O)c3ccc4cc[nH]c4c3)CC2)CC1.Cl | 162 to 172 °C (dec.)
6 | CN1CCC(C2CCN(C(=O)[C@H](CC3CCOCC3)NC(=O)c3ccc4cc[nH]c4c3)CC2)CC1.Cl | 162 to 178 °C (dec.)
7 | CN1CCC(N2CCN(C(=O)[C@@H](Cc3ccncc3)NC(=O)c3cc4ccc(Cl)cc4s3)CC2)CC1.Cl | 213 to 217 °C (dec.)
8 | CN1CCC(N2CCN(C(=O)[C@@H](Cc3ccncc3)NC(=O)c3cc4cc(Cl)ccc4[nH]3)CC2)CC1.Cl | 238 to 242 °C (dec.)
9 | CN1CCC(N2CCN(C(=O)[C@@H](Cc3ccccn3)NC(=O)c3cc4ccc(Cl)cc4s3)CC2)CC1.Cl | 219 to 223 °C (dec.)
10 | CN1CCC(N2CCN(C(=O)[C@@H](Cc3ccccn3)NC(=O)c3cc4cc(Cl)ccc4[nH]3)CC2)CC1.Cl | 210 to 214 °C (dec.)
11 | CN1CCC(N2CCN(C(=O)[C@@H](CCC(=O)O)NC(=O)c3cc4ccc(Cl)cc4s3)CC2)CC1.Cl | 185 to 190 °C (dec.)
12 | CN1CCC(C[C@@H](NC(=O)c2cc3ccc(Cl)cc3s2)C(=O)N2CCN(C3CCN(C)CC3)CC2)CC1.Cl | 220 to 223 °C (dec.)
13 | CN1CCC(C[C@@H](NC(=O)c2cc3cc(Cl)ccc3[nH]2)C(=O)N2CCN(C3CCN(C)CC3)CC2)CC1.Cl | 205 to 210 °C (dec.)

The remaining lines, values ahead:

Row | melting point | SMILES
14 | 228 to 235 °C (dec.) | CN1CCC(N2CCN(C(=O)[C@@H](Cc3ccncc3)NC(=O)c3ccc4cc[nH]c4c3)CC2)CC1.Cl
15 | 232 to 235 °C (dec.) | CN1CCC(N2CCN(C(=O)[C@@H](Cc3ccccn3)NC(=O)c3ccc4cc[nH]c4c3)CC2)CC1.Cl
16 | 215 to 218 °C (dec.) | CN1CCC(N2CCN(C(=O)[C@@H](CCC(=O)O)NC(=O)c3ccc4cc[nH]c4c3)CC2)CC1.Cl
17 | 222 to 225 °C (dec.) | CN1CCC(N2CCN(C(=O)[C@@H](CCC(=O)O)NC(=O)c3cc4cc(Cl)ccc4[nH]3)CC2)CC1.Cl
18 | 190 to 193 °C (dec.) | CN1CCC(C[C@@H](NC(=O)c2ccc3cc[nH]c3c2)C(=O)N2CCN(C3CCN(C)CC3)CC2)CC1.Cl
19 | 215 to 219 °C (dec.) | CN1CCC(N2CCN(C(=O)[C@@H](CC(N)=O)NC(=O)c3ccc4cc[nH]c4c3)CC2)CC1.Cl
20 | 219 to 223 °C (dec.) | CN1CCC(N2CCN(C(=O)[C@@H](CC(N)=O)NC(=O)c3cc4ccc(Cl)cc4s3)CC2)CC1.Cl
21 | 235 to 240 °C (dec.) | CN1CCC(N2CCN(C(=O)[C@@H](CC(N)=O)NC(=O)c3cc4cc(Cl)ccc4[nH]3)CC2)CC1.Cl

Reference: patent publication US7115609B2, “Alanyl-piperidine heterocyclic derivatives useful against cardiovascular diseases” (Eli Lilly and Company, priority 2001, dated 2006)
